Results taken from the NIST ThermoML archive (doi:10.1021/je901067c).

Assays:
[1] = 101 kPa, Liquid; for viscosity: Capillary tube (Ostwald / Ubbelohde) method
[2] = refractive index (Na D-line) (dimensionless); conditions: 101.33 kPa, Liquid, Standard Abbe refractometry
[3] = refractive index (Na D-line) (dimensionless); xn = mol fraction of the nth substance listed; conditions: 101 kPa, Liquid, Standard Abbe refractometry
[4] = xn = mol fraction of the nth substance listed; conditions: 101 kPa, Liquid; for viscosity: Capillary tube (Ostwald / Ubbelohde) method

CCCC(C)O (stereo not drawn) [pentan-2-ol]
Conditions	mass density, 298.15 K [kg/m3]	mass density, 308.15 K [kg/m3]	mass density, 318.15 K [kg/m3]	refractive index, 298.15 K	refractive index, 308.15 K	refractive index, 318.15 K	viscosity, 298.15 K [mPa·s]	viscosity, 308.15 K [mPa·s]	viscosity, 318.15 K [mPa·s]
[1]	805.3	797	788.37	–	–	–	3.478	2.361	1.772
[2]	–	–	–	1.4032	1.399	1.395	–	–	–

CCCCCO [pentan-1-ol] + CCC(C)=O
x2 = 0
Conditions	mass density, 298.15 K [kg/m3]	mass density, 308.15 K [kg/m3]	mass density, 318.15 K [kg/m3]	refractive index, 298.15 K	refractive index, 308.15 K	refractive index, 318.15 K	viscosity, 298.15 K [mPa·s]	viscosity, 308.15 K [mPa·s]	viscosity, 318.15 K [mPa·s]
[3]	–	–	–	1.4068	1.4031	1.3996	–	–	–
[4]	810.85	803.45	795.9	–	–	–	3.54	2.658	2.288

CCC(O)CC [3-pentanol]
Conditions	mass density, 298.15 K [kg/m3]	mass density, 308.15 K [kg/m3]	mass density, 318.15 K [kg/m3]	refractive index, 298.15 K	refractive index, 308.15 K	refractive index, 318.15 K	viscosity, 298.15 K [mPa·s]	viscosity, 308.15 K [mPa·s]	viscosity, 318.15 K [mPa·s]
[1]	815.79	806.91	797.66	–	–	–	4.625	2.864	1.902
[2]	–	–	–	1.4047	1.4029	1.3981	–	–	–

CCCCCO [pentan-1-ol]
Conditions	mass density, 298.15 K [kg/m3]	mass density, 308.15 K [kg/m3]	mass density, 318.15 K [kg/m3]	refractive index, 298.15 K	refractive index, 308.15 K	refractive index, 318.15 K	viscosity, 298.15 K [mPa·s]	viscosity, 308.15 K [mPa·s]	viscosity, 318.15 K [mPa·s]
[1]	810.85	803.45	795.9	–	–	–	3.54	2.658	2.288
[2]	–	–	–	1.4068	1.4031	1.3996	–	–	–

CCC(C)=O [butanone] + CCC(O)CC
x1 = 1
Conditions	mass density, 298.15 K [kg/m3]	mass density, 308.15 K [kg/m3]	mass density, 318.15 K [kg/m3]	refractive index, 298.15 K	refractive index, 308.15 K	refractive index, 318.15 K	viscosity, 298.15 K [mPa·s]	viscosity, 308.15 K [mPa·s]	viscosity, 318.15 K [mPa·s]
[3]	–	–	–	1.375	1.37	1.3657	–	–	–
[4]	799.76	789.21	778.52	–	–	–	0.391	0.361	0.334

CCC(C)=O [butanone] + CCCC(C)O
x1 = 1
Conditions	mass density, 298.15 K [kg/m3]	mass density, 308.15 K [kg/m3]	mass density, 318.15 K [kg/m3]	refractive index, 298.15 K	refractive index, 308.15 K	refractive index, 318.15 K	viscosity, 298.15 K [mPa·s]	viscosity, 308.15 K [mPa·s]	viscosity, 318.15 K [mPa·s]
[3]	–	–	–	1.375	1.37	1.3657	–	–	–
[4]	799.76	789.21	778.52	–	–	–	0.391	0.361	0.334

CCC(C)=O [butanone]
Conditions	mass density, 298.15 K [kg/m3]	mass density, 308.15 K [kg/m3]	mass density, 318.15 K [kg/m3]	refractive index, 298.15 K	refractive index, 308.15 K	refractive index, 318.15 K	viscosity, 298.15 K [mPa·s]	viscosity, 308.15 K [mPa·s]	viscosity, 318.15 K [mPa·s]
[1]	799.76	789.21	778.52	–	–	–	0.391	0.361	0.334
[2]	–	–	–	1.375	1.37	1.3657	–	–	–
